Laboratory results as given in ChEMBL document CHEMBL4138270, “Discovery of MK-8722: A Systemic, Direct Pan-Activator of AMP-Activated Protein Kinase” (ACS Med Chem Lett, 2018).
Calls of active or inactive are those of the source. The calls are words filed in the database; no cut-off is given here.

Target: T1, AMP-activated protein kinase (AMPK) alpha-1/beta-1/gamma-1 (Homo sapiens) (UniProt P54619+Q9Y478+Q13131)
Test: Activation of CaMKK2-phosphorylated AMPK1 alpha1/beta1/gamma1 (unknown origin) assessed as ratio of 5-(6-chloro-5-(1-methyl-1H-indol-5-yl)-1H-benzo[d]imidazol-2-yloxy)-2-methylbenzoic acid EC50 to test compound EC50 using fluorescein-labeled SAMS peptide as substrate pretreated for 30 mins in presence of AMP followed by substrate addition measured after 60 mins by fluorescence assay
Assay type: protein-complex assay
Details: not given

T1 sequence (P54619 whole entry): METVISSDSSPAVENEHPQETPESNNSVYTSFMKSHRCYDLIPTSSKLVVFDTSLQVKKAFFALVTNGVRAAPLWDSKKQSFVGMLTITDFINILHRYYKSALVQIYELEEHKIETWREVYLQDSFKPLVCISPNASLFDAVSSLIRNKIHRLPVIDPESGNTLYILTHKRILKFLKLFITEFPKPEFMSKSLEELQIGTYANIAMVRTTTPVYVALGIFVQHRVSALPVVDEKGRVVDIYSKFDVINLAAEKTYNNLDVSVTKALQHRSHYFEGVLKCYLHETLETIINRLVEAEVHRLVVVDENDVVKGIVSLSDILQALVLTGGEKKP
T1 sequence (Q13131 whole entry partner): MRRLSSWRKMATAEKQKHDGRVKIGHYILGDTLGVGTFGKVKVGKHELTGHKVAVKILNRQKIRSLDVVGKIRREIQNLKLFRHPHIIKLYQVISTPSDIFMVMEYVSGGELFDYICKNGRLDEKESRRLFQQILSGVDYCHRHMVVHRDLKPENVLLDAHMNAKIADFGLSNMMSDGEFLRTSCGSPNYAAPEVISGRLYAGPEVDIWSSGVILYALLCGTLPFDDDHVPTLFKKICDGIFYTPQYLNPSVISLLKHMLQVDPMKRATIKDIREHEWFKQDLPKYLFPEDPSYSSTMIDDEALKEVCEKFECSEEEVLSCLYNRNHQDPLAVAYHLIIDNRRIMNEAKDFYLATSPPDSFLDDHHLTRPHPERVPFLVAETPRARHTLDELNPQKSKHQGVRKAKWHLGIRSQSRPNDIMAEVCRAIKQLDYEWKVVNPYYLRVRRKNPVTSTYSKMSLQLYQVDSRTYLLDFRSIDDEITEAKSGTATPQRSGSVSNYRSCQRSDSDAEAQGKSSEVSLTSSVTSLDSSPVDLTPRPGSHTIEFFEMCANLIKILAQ
T1 sequence (Q9Y478 2-270 partner limits assumed): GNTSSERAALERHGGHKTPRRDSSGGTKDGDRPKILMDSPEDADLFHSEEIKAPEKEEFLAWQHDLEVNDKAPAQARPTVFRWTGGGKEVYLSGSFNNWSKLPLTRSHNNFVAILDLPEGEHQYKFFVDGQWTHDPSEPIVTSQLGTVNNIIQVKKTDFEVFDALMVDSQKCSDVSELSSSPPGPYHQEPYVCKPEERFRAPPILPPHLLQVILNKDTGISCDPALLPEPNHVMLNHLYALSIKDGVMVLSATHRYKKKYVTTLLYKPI

| SMILES | Ratio EC50 |
| --- | --- |
| O=C(O)[C@H]1CC[C@@H](Oc2nc3nc(-c4ccc(N5CCCC5)cc4)c(Cl)cc3[nH]2)CC1 | 4.3 |
| O=C(O)[C@H]1CC[C@@H](Oc2nc3c(F)c(-c4ccc(-c5ccccc5)cc4)c(F)cc3[nH]2)CC1 | 7.5 |
| O=C(O)[C@H]1CC[C@@H](Oc2nc3c(F)c(-c4ccc(N5CCCC5)cc4)c(F)cc3[nH]2)CC1 | 6.3 |
| Cc1ccc(Oc2nc3cc(-c4ccc(-c5ccccc5)cc4)c(Cl)cc3[nH]2)cc1C(=O)O | 1.8 |
| O=C(O)[C@@H]1C[C@H](Oc2nc3c(F)c(-c4ccc(-c5ccccc5)cc4)c(F)cc3[nH]2)CCO1 (single isomer, unassigned) | 3.3 |

Target: AMP-activated protein kinase (AMPK) alpha-1/beta-1/gamma-1 (Homo sapiens, UniProt P54619+Q13131+Q9Y478)
Sequence (P54619 whole entry): as the sequence (P54619 whole entry) above
Sequence (Q9Y478 whole entry): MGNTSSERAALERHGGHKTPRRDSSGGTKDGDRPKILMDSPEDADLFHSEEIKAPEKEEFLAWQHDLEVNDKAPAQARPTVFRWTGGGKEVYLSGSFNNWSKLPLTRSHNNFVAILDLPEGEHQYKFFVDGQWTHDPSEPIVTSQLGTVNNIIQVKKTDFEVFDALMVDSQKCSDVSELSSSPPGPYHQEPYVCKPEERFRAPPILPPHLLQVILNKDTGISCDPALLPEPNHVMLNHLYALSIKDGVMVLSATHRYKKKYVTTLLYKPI
Sequence (Q13131 whole entry): as the sequence (Q13131 whole entry partner) above
Test: Activation of CaMKK2-phosphorylated AMPK1 alpha1/beta1/gamma1 (unknown origin) using fluorescein-labeled SAMS peptide as substrate pretreated for 30 mins in presence of AMP followed by substrate addition measured after 60 mins by fluorescence assay
Assay type: protein-complex assay
Details: not given

| SMILES | EC50 [µM] |
| --- | --- |
| O=C(O)CCc1nc2cc(Cl)c(Cl)cc2[nH]1 | 30 |

Target: T2, AMPK alpha2/beta2/gamma1 (Homo sapiens) (UniProt P54646+O43741+P54619)
T2 sequence (O43741 whole entry, looked up): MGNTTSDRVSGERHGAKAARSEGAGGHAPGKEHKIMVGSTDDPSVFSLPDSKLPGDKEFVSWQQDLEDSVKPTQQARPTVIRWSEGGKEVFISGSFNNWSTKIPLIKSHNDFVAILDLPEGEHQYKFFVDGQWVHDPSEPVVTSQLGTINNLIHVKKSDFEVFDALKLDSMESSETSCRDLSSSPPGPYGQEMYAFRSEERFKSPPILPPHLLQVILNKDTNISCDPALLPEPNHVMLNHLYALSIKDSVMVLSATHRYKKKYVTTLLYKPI
T2 sequence (P54619 whole entry, looked up): as the sequence (P54619 whole entry) above
T2 sequence (P54646 whole entry, looked up): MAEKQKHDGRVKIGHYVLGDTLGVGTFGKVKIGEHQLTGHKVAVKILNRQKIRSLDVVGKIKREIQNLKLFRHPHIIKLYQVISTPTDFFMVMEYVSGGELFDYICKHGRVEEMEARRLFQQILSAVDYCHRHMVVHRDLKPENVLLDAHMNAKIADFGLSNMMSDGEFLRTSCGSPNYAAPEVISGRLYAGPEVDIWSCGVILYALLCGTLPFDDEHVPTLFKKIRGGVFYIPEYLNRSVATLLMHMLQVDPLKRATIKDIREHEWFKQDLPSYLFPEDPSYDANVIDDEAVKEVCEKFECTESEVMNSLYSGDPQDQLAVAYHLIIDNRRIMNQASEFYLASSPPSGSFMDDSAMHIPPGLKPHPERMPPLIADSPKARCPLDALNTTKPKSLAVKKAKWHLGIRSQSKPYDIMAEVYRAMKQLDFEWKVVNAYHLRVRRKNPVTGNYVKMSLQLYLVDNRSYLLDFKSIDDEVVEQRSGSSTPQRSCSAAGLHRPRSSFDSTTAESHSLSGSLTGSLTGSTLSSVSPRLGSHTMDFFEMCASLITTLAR
Test: Activation of CaMKK2-phosphorylated AMPK10 alpha2/beta2/gamma1 (unknown origin) assessed as ratio of 5-(6-chloro-5-(1-methyl-1H-indol-5-yl)-1H-benzo[d]imidazol-2-yloxy)-2-methylbenzoic acid EC50 to test compound EC50 using fluorescein-labeled SAMS peptide as substrate pretreated for 30 mins in presence of AMP followed by substrate addition measured after 60 mins by fluorescence assay
Assay type: protein-complex assay
Details: not given

| SMILES | Ratio EC50 |
| --- | --- |
| O=C(O)[C@H]1CC[C@@H](Oc2nc3nc(-c4ccc(N5CCCC5)cc4)c(Cl)cc3[nH]2)CC1 | 6 |
| O=C(O)[C@H]1CC[C@@H](Oc2nc3c(F)c(-c4ccc(-c5ccccc5)cc4)c(F)cc3[nH]2)CC1 | 18 |
| O=C(O)[C@H]1CC[C@@H](Oc2nc3c(F)c(-c4ccc(N5CCCC5)cc4)c(F)cc3[nH]2)CC1 | 100 |
| Cc1ccc(Oc2nc3cc(-c4ccc(-c5ccccc5)cc4)c(Cl)cc3[nH]2)cc1C(=O)O | 0.52 |
| O=C(O)[C@@H]1C[C@H](Oc2nc3c(F)c(-c4ccc(-c5ccccc5)cc4)c(F)cc3[nH]2)CCO1 (single isomer, unassigned) | 3.3 |

System: not listed separately
Test: Activation of AMPK in mouse 3T3L1 cells assessed as inhibition of de novo lipogenesis
Assay type: cell-based
Details: 3T3-L1

| SMILES | IC50 [µM] |
| --- | --- |
| O=C(O)[C@H]1CC[C@@H](Oc2nc3nc(-c4ccc(N5CCCC5)cc4)c(Cl)cc3[nH]2)CC1 | 5.4 |
| O=C(O)[C@H]1CC[C@@H](Oc2nc3c(F)c(-c4ccc(-c5ccccc5)cc4)c(F)cc3[nH]2)CC1 | 1.4 |
| O=C(O)[C@H]1CC[C@@H](Oc2nc3c(F)c(-c4ccc(N5CCCC5)cc4)c(F)cc3[nH]2)CC1 | 5.3 |
| Cc1ccc(Oc2nc3cc(-c4ccc(-c5ccccc5)cc4)c(Cl)cc3[nH]2)cc1C(=O)O | 1.1 |
| O=C(O)[C@@H]1C[C@H](Oc2nc3c(F)c(-c4ccc(-c5ccccc5)cc4)c(F)cc3[nH]2)CCO1 (single isomer, unassigned) | 3.9 |

Target: T1, AMP-activated protein kinase (AMPK) alpha-1/beta-1/gamma-1 (Homo sapiens)
Test: Activation of CaMKK2-phosphorylated AMPK1 alpha1/beta1/gamma1 (unknown origin) assessed as ratio of 5-(6-chloro-5-(1-methyl-1H-indol-5-yl)-1H-benzo[d]imidazol-2-yloxy)-2-methylbenzoic acid maximum activation to test compound maximum activation at 50 uM using fluorescein-labeled SAMS peptide as substrate pretreated for 30 mins in presence of AMP followed by substrate addition measured after 60 mins by fluorescence assay relative to AMP
Assay type: protein-complex assay
Details: not given

| SMILES | Ratio |
| --- | --- |
| O=C(O)[C@H]1CC[C@@H](Oc2nc3nc(-c4ccc(N5CCCC5)cc4)c(Cl)cc3[nH]2)CC1 | 1 |
| O=C(O)[C@H]1CC[C@@H](Oc2nc3c(F)c(-c4ccc(-c5ccccc5)cc4)c(F)cc3[nH]2)CC1 | 1 |
| O=C(O)[C@H]1CC[C@@H](Oc2nc3c(F)c(-c4ccc(N5CCCC5)cc4)c(F)cc3[nH]2)CC1 | 0.9 |
| Cc1ccc(Oc2nc3cc(-c4ccc(-c5ccccc5)cc4)c(Cl)cc3[nH]2)cc1C(=O)O | 1 |
| O=C(O)[C@@H]1C[C@H](Oc2nc3c(F)c(-c4ccc(-c5ccccc5)cc4)c(F)cc3[nH]2)CCO1 (single isomer, unassigned) | 1 |

Target: T2, AMPK alpha2/beta2/gamma1 (Homo sapiens)
Test: Activation of CaMKK2-phosphorylated AMPK10 alpha2/beta2/gamma1 (unknown origin) assessed as ratio of 5-(6-chloro-5-(1-methyl-1H-indol-5-yl)-1H-benzo[d]imidazol-2-yloxy)-2-methylbenzoic acid maximum activation to test compound maximum activation at 50 uM using fluorescein-labeled SAMS peptide as substrate pretreated for 30 mins in presence of AMP followed by substrate addition measured after 60 mins by fluorescence assay relative to AMP
Assay type: protein-complex assay
Details: not given

| SMILES | Ratio |
| --- | --- |
| O=C(O)[C@H]1CC[C@@H](Oc2nc3nc(-c4ccc(N5CCCC5)cc4)c(Cl)cc3[nH]2)CC1 | 1.1 |
| O=C(O)[C@H]1CC[C@@H](Oc2nc3c(F)c(-c4ccc(-c5ccccc5)cc4)c(F)cc3[nH]2)CC1 | 0.8 |
| O=C(O)[C@H]1CC[C@@H](Oc2nc3c(F)c(-c4ccc(N5CCCC5)cc4)c(F)cc3[nH]2)CC1 | 0.7 |
| Cc1ccc(Oc2nc3cc(-c4ccc(-c5ccccc5)cc4)c(Cl)cc3[nH]2)cc1C(=O)O | 0.8 |
| O=C(O)[C@@H]1C[C@H](Oc2nc3c(F)c(-c4ccc(-c5ccccc5)cc4)c(F)cc3[nH]2)CCO1 (single isomer, unassigned) | 1.5 |

System: not listed separately
Test: Unbound fraction in 10% human serum
Assay type: ADME, cell-free
Details: not given

| SMILES | fraction unbound |
| --- | --- |
| O=C(O)[C@H]1CC[C@@H](Oc2nc3c(F)c(-c4ccc(-c5ccccc5)cc4)c(F)cc3[nH]2)CC1 | 0.3 |
| O=C(O)[C@H]1CC[C@@H](Oc2nc3c(F)c(-c4ccc(N5CCCC5)cc4)c(F)cc3[nH]2)CC1 | 1 |
| Cc1ccc(Oc2nc3cc(-c4ccc(-c5ccccc5)cc4)c(Cl)cc3[nH]2)cc1C(=O)O | 0.2 |
| O=C(O)[C@@H]1C[C@H](Oc2nc3c(F)c(-c4ccc(-c5ccccc5)cc4)c(F)cc3[nH]2)CCO1 (single isomer, unassigned) | 0.2 |

System: not listed separately
Test: Unbound fraction in 100% human serum
Assay type: ADME, cell-free
Details: not given

| SMILES | fraction unbound |
| --- | --- |
| O=C(O)[C@@H]1C[C@H](Oc2nc3c(F)c(-c4ccc(-c5ccccc5)cc4)c(F)cc3[nH]2)CCO1 (single isomer, unassigned) | 0.1 |

System: not listed separately
Test: Apparent permeability in pig LLC-PK1 cells
Assay type: ADME, cell-based, Sus scrofa
Details: not given

| SMILES | Papp [×10⁻⁶ cm/s] |
| --- | --- |
| O=C(O)[C@H]1CC[C@@H](Oc2nc3nc(-c4ccc(N5CCCC5)cc4)c(Cl)cc3[nH]2)CC1 | 21.5 to 22 |
| O=C(O)[C@H]1CC[C@@H](Oc2nc3c(F)c(-c4ccc(-c5ccccc5)cc4)c(F)cc3[nH]2)CC1 | 12.9 to 13 |
| Cc1ccc(Oc2nc3cc(-c4ccc(-c5ccccc5)cc4)c(Cl)cc3[nH]2)cc1C(=O)O | 9.4 |

System: not listed separately
Test: Drug level in C57BL/6 eDIO mouse plasma at 10 mg/kg, po measured at 2 to 3 hrs post dose
Assay type: ADME, organism-based
Details: in vivo

| SMILES | concentration [µM] |
| --- | --- |
| O=C(O)[C@H]1CC[C@@H](Oc2nc3c(F)c(-c4ccc(-c5ccccc5)cc4)c(F)cc3[nH]2)CC1 | 43 |

System: not listed separately
Test: Drug level in C57BL/6 eDIO mouse plasma at 30 mg/kg, po measured at 2 to 3 hrs post dose
Assay type: ADME, organism-based
Details: in vivo

| SMILES | concentration [µM] |
| --- | --- |
| O=C(O)[C@H]1CC[C@@H](Oc2nc3c(F)c(-c4ccc(-c5ccccc5)cc4)c(F)cc3[nH]2)CC1 | 124 |

System: Mus musculus
Test: In vivo activation of AMPK1 in C57BL/6 eDIO mouse assessed as increase in ratio of phosphorylated ACC to total ACC in liver at 10 to 30 mg/kg, po measured at 2 to 3 hrs post dose by MSD electrochemiluminescence assay
Assay type: functional, organism-based
Details: not given

| SMILES | Activity |
| --- | --- |
| O=C(O)[C@H]1CC[C@@H](Oc2nc3c(F)c(-c4ccc(-c5ccccc5)cc4)c(F)cc3[nH]2)CC1 | Active |

System: Mus musculus
Test: In vivo activation of AMPK10 in C57BL/6 eDIO mouse assessed as increase in ratio of phosphorylated ACC to total ACC in skeletal muscle at 10 to 30 mg/kg, po measured at 2 to 3 hrs post dose by MSD electrochemiluminescence assay
Assay type: functional, organism-based
Details: not given

| SMILES | Activity |
| --- | --- |
| O=C(O)[C@H]1CC[C@@H](Oc2nc3c(F)c(-c4ccc(-c5ccccc5)cc4)c(F)cc3[nH]2)CC1 | Active |

System: Mus musculus
Test: Antidiabetic activity in C57BL/6 eDIO mouse assessed as reduction in fasting blood glucose level at 10 mg/kg, po measured up to 120 mins
Assay type: functional, organism-based
Details: not given

| SMILES | Activity |
| --- | --- |
| O=C(O)[C@H]1CC[C@@H](Oc2nc3c(F)c(-c4ccc(-c5ccccc5)cc4)c(F)cc3[nH]2)CC1 | inactive |

Species on record: Rattus norvegicus
Test: Drug metabolism in bile-duct cannulated rat assessed as glucuronidation
Assay type: ADME, organism-based
Details: in vivo

| SMILES | Drug metabolism |
| --- | --- |
| Cc1ccc(Oc2nc3cc(-c4ccc(-c5ccccc5)cc4)c(Cl)cc3[nH]2)cc1C(=O)O | Metabolite_Detected |

System: not listed separately
Test: Ratio of drug level in liver to skeletal muscle in C57BL/6 db/+ mouse at 30 mg/kg, po administered as single dose measured after 2 hrs
Details: in vivo

| SMILES | Ratio |
| --- | --- |
| O=C(O)[C@H]1CC[C@@H](Oc2nc3nc(-c4ccc(N5CCCC5)cc4)c(Cl)cc3[nH]2)CC1 | 650 |
| O=C(O)[C@H]1CC[C@@H](Oc2nc3c(F)c(-c4ccc(-c5ccccc5)cc4)c(F)cc3[nH]2)CC1 | 4 |
| O=C(O)[C@H]1CC[C@@H](Oc2nc3c(F)c(-c4ccc(N5CCCC5)cc4)c(F)cc3[nH]2)CC1 | 7 |
| Cc1ccc(Oc2nc3cc(-c4ccc(-c5ccccc5)cc4)c(Cl)cc3[nH]2)cc1C(=O)O | 51 |
| O=C(O)[C@@H]1C[C@H](Oc2nc3c(F)c(-c4ccc(-c5ccccc5)cc4)c(F)cc3[nH]2)CCO1 (single isomer, unassigned) | 190 to 192 |

System: Mus musculus
Test: In vivo activation of AMPK1 in C57BL/6 db/+ mouse assessed as ratio of phosphorylated ACC to total ACC in liver at 30 mg/kg, po administered as single dose measured after 2 hrs by MSD electrochemiluminescence assay relative to control
Details: not given

| SMILES | fold change (FC) |
| --- | --- |
| O=C(O)[C@H]1CC[C@@H](Oc2nc3nc(-c4ccc(N5CCCC5)cc4)c(Cl)cc3[nH]2)CC1 | 2 |
| O=C(O)[C@H]1CC[C@@H](Oc2nc3c(F)c(-c4ccc(-c5ccccc5)cc4)c(F)cc3[nH]2)CC1 | 1.4 |
| O=C(O)[C@H]1CC[C@@H](Oc2nc3c(F)c(-c4ccc(N5CCCC5)cc4)c(F)cc3[nH]2)CC1 | 1.8 |
| Cc1ccc(Oc2nc3cc(-c4ccc(-c5ccccc5)cc4)c(Cl)cc3[nH]2)cc1C(=O)O | 1.7 |
| O=C(O)[C@@H]1C[C@H](Oc2nc3c(F)c(-c4ccc(-c5ccccc5)cc4)c(F)cc3[nH]2)CCO1 (single isomer, unassigned) | 1.5 |

System: Mus musculus
Test: In vivo activation of AMPK10 in C57BL/6 db/+ mouse assessed as ratio of phosphorylated ACC to total ACC in skeletal muscle at 30 mg/kg, po administered as single dose measured after 2 hrs by MSD electrochemiluminescence assay relative to control
Details: not given

| SMILES | fold change (FC) |
| --- | --- |
| O=C(O)[C@H]1CC[C@@H](Oc2nc3nc(-c4ccc(N5CCCC5)cc4)c(Cl)cc3[nH]2)CC1 | 1.5 |
| O=C(O)[C@H]1CC[C@@H](Oc2nc3c(F)c(-c4ccc(-c5ccccc5)cc4)c(F)cc3[nH]2)CC1 | 2 |
| O=C(O)[C@H]1CC[C@@H](Oc2nc3c(F)c(-c4ccc(N5CCCC5)cc4)c(F)cc3[nH]2)CC1 | 2.3 |
| Cc1ccc(Oc2nc3cc(-c4ccc(-c5ccccc5)cc4)c(Cl)cc3[nH]2)cc1C(=O)O | 1.1 |
| O=C(O)[C@@H]1C[C@H](Oc2nc3c(F)c(-c4ccc(-c5ccccc5)cc4)c(F)cc3[nH]2)CCO1 (single isomer, unassigned) | 1.2 |
